Laboratory results as given in patent publication US8779132B2, “Pharmaceutical compounds” (Astex Therapeutics Limited, priority 2006, dated 2014).
Structures can show the parent of a compound that is named as a salt.

How the values were obtained:
Plasma stability studies = format: in vitro ADME; conditions: mouse plasma, 37° C., approximately 1 hour
Experimental: The ease with which pro-drug compounds of the invention can be converted to the active moiety can be assessed by measuring the in vitro plasma stability of the compounds. The method is based on the ability of plasma enzymes to metabolise compounds to the active moiety. Compounds are added to plasma and incubated at 37° C. for approximately 1 hour. Aliquots of plasma are removed at timed intervals and the compound extracted by the addition of acetonitrile containing an internal standard. All extracts are then analysed for parent compound, the active moiety and the internal standard using a compound specific LCMS-MS assay. Stability is measured by comparison of the peak area ratio of the parent compound and internal standard at time zero with the peak area ratio of the parent compound and internal standard in the incubated samples. Generation of the active moiety in samples is also assessed.

HCT116 cell line = assay: Anti-proliferative activity, Alamar Blue assay; format: cell-based; conditions: Homo sapiens, HCT-116, 72 h
Experimental: The anti-proliferative activities of compounds of the invention can be determined by measuring the ability of the compounds to inhibition of cell growth in a number of cell lines such as the human colon cancer cell line HCT116. […] The method is based on the ability of viable cells to reduce resazurin to its fluorescent product resorufin. […] The number of viable cells is determined by Alamar Blue assay as before. Cell lines can be obtained from the ECACC (European Collection of cell Cultures).

Structure (SMILES) | generation of the active moiety (2,4-dihydroxy-5-isopropyl-phenyl)-[5-(4-methyl-piperazin-1-yl)-1,3-dihydro-isoindol-2-yl]-methanone (Plasma stability studies) | in vitro plasma stability (Plasma stability studies) | IC50 (HCT116 cell line)
CC(=O)Oc1cc(OC(C)=O)c(C(C)C)cc1C(=O)N1Cc2ccc(N3CCN(C)CC3)cc2C1 [Example 84, acetic acid 5-acetoxy-4-isopropyl-2-[5-(4-methyl-piperazin-1-yl)-1,3-dihydro-isoindole-2-carbonyl]-phenyl ester] | formed the active moiety | range of stabilities | 
CC(C)c1cc(C(=O)N2Cc3ccc(N4CCN(C)CC4)cc3C2)c(OC(=O)N(C)C)cc1OC(=O)N(C)C [Example 86, dimethyl-carbamic acid 5-dimethylcarbamoyloxy-2-isopropyl-4-[5-(4-methyl-piperazin-1-yl)-1,3-dihydro-isoindole-2-carbonyl]-phenyl ester] | formed the active moiety | range of stabilities | 
CC(C)c1cc(C(=O)N2Cc3ccc(C(=O)N4CCNCC4)cc3C2)c(O)cc1O [Example 54, (2,4-dihydroxy-5-isopropyl-phenyl)-[5-(piperazine-1-carbonyl)-1,3-dihydro-isoindol-2-yl]-methanone hydrochloride] |  |  | < 1000 nM
CC(C)c1cc(C(=O)N2Cc3ccc(N4CCN(C)CC4)cc3C2)c(OC(=O)C(C)(C)C)cc1OC(=O)C(C)(C)C [Example 85, 2,2-dimethyl-propionic acid 5-(2,2-dimethyl-propionyloxy)-4-isopropyl-2-[5-(4-methyl-piperazin-1-yl)-1,3-dihydro-isoindole-2-carbonyl]-phenyl ester] | formed the active moiety | range of stabilities | 
CC(C)c1cc(C(=O)N2Cc3ccccc3C2)c(O)cc1O [Example 5, (1,3-Dihydro-isoindol-2-yl)-(2,4-dihydroxy-5-isopropyl-phenyl)-methanone] |  |  | < 1000 nM
